# Results published in patent publication US12152030B2 (NOVOSTAR PHARMACEUTICALS, LTD., priority 2019, dated 2024).
# Structures can show the parent of a compound that is named as a salt.
# Columns and labels:
# MNK1 = MNK1 (Homo sapiens, UniProt Q9BUB5); assay: MNK biological enzyme assay (HTRF kinase assay), MNK1; format: biochemical; set-up: purchased ThermoFisher PV6023; conditions: 3 ng/ul MNK1, 1 μM STK1 peptide, 100 μM ATP
# Protocol: (§1) A HTRF kinase assay kit (Cisbio, catalog number 62ST1PEB) was used to determine the MNK inhibitory activity of the compounds. All kinase reactions were performed in the reaction buffer (provided in the kit). The final MNK1 reaction involved 3 ng/ul recombinant MNK1 (ThermoFisher, PV6023), 1 μM MNK substrate peptide STK1 (provided in the kit), 100 μM ATP, and different concentrations of the inhibitory compounds of interest. The final MNK2 reaction involved 1 ng/μl recombinant MNK2 (ThermoFisher, PV5607), 1 μM MNK substrate peptide STK1 (provided in the kit), 100 μM ATP, and different concentrations of the inhibitory compounds of interest. The final DMSO concentration in each of the reactions was 1%.
# (§2) The kinase reaction was performed in a final volume of 10 μl in a 384-well white flat-bottomed polystyrene plate. The MNK1/2 enzyme was pre-incubated with the compound and substrate peptide for 5 minutes, and then ATP was added thereto. After addition of ATP, the kinase reaction was incubated at 25° C. for 120 minutes or 60 minutes. The reaction was subsequently terminated by adding 5 μl of EU3+ substrate antibody detection reagent and 5 μl of XL665 detection reagent, and incubating for another 60 minutes. The luminescent signal was detected with an EnVision microplate reader counter (Perkin Elmer), and the signal from 10-point dilution series of the compounds was used to calculate the compound concentration (IC50) required to achieve 50% inhibition of enzyme activity.
# (§3) In this respect, IC50 values which are less than 0.01 μM were marked as “+++”, which are from 0.01 to 0.1 μM were marked as “++”, and which are greater than 0.1 and up to 10.0 μM were marked as “+”, and NA meant “not detected”.
# [1] = Pharmacokinetic study in rats; format: in vivo; conditions: male, SD, plasma, rat
# Protocol: In the examples, rat pharmacokinetic tests were performed for compounds 2 and 26 to illustrate their pharmacokinetic properties in rats.
# Formulation of Liquors of Compound 2: […]
# Experimental Method for Pharmacokinetic Study in Rats
# (§4) Six SD rats, male, weighing 180-220 g, fasting for 12 hours, were randomly divided into 2 groups, 3 in each group. The animals in group A were intragastrically administrated with the compound liquor at a dose of 10 mg/kg; the animals in group B were intravenously administrated with the compound liquor via tails at a dose of 3 mg/kg. Blank blood was harvested before administration; about 100 μL of venous blood was harvested at different time points after administration, placed in a test tube added with heparin and centrifuged, and about 50 μL of blood plasma was collected and stored at −20° C. for testing.
# Formulation of Liquors of Compound 26: […]
# Formulation of solution for intravenous administration: compound 26 was dissolved in a solution of 5% DMSO+10% Solutol HS15+85% (20% HP-(3-CD physiological saline).
# Formulation of suspension for intragastric administration: compound 26 was dissolved in a solution of 5% DMSO+10% Solutol HS15+85% (20% HP-(3-CD physiological saline).
# Administration dosage of compound 26: 1 mg/kg for intravenous injection, 3 mg/kg for intragastric administration.
# as §4, with “of 3” for “of 10”, “of 1” for “of 3”
# MNK2 [2] = biological target: T1, MNK2 (Homo sapiens, UniProt Q9HBH9); assay: MNK biological enzyme assay (HTRF kinase assay), MNK2; format: biochemical; set-up: purchased ThermoFisher PV5607; conditions: 1 ng/μl MNK2, 1 μM STK1 peptide, 100 μM ATP
# T1 sequence (Q9HBH9 whole entry): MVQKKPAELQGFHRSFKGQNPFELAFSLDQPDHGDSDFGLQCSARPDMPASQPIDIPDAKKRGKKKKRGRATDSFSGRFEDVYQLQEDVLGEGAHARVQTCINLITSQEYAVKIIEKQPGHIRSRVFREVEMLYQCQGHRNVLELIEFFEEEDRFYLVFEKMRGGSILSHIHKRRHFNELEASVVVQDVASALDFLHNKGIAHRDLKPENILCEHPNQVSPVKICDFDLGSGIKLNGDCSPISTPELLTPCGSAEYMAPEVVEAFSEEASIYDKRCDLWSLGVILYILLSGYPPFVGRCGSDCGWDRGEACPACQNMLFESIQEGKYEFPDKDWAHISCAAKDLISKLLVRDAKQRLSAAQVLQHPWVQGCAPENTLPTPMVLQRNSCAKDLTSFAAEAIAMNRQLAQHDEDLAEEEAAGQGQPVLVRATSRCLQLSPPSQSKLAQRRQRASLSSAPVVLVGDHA
# Protocol: as §1, §2, §3
# Phosphorylated eIF4E = assay: Intracellular peIF4E signaling assay; format: cell-based; conditions: 2 h; two hours incubation at 37° C.; read-out: peIF4E signaling cell assay IC50
# Protocol: Phosphorylated eIF4E was determined using CisBio peIF4E assay kit (CisBio, catalog number 64EF4PEG). The cells were plated in a 96-well cell culture plate in a volume of 90 μL, and the number of cells per well was 5*10^4. The compounds (10×) were subjected to 3-fold serial dilution, added to the cell plate in a volume of 10 μL with the final DMSO concentration being 1%, and incubated at 37° C. for two hours. The cell plate was centrifuged at 300 g for 5 minutes, and the cell supernatant was carefully removed. The cell plate was immediately added with 50 μL of cell lysis buffer […] and incubated at 25° C. with shaking for at least 30 minutes. After homogenization by pipetting, 16 μL of cell lysate was transferred from the 96-well cell culture plate to a 384-well small-volume microwell plate. According to the kit instruction, an antibody mixture solution was prepared with a detection buffer, and was added in a volume of 4 μL to the 384-well small-volume microwell plate containing the cell lysate. The plate was covered with a plate sealer, incubated overnight at 25° C., and was read for fluorescence emission at two different wavelengths (665 nm and 615 nm) on the EnVision microplate reader counter. The emission ratio was imported into a GraphPadPrism software to fit the compound concentration (IC50) required for 50% inhibition of enzyme activity.
# In this respect, IC50 values which are less than 0.05 μM were marked as “+++”, which are from 0.05 to 1.0 μM were marked as “++”, and which are greater than 1.0 and up to 100 μM were marked as “+”, and NA meant “not detected”.
# MNK2 [3] = biological target: T1, MNK2; assay: KinomeScan, MNK2; format: binding
# Text: KinomeScan was used to determine the kinase selectivity of compound 2.
# MNK1, sequence (Q9BUB5 whole entry): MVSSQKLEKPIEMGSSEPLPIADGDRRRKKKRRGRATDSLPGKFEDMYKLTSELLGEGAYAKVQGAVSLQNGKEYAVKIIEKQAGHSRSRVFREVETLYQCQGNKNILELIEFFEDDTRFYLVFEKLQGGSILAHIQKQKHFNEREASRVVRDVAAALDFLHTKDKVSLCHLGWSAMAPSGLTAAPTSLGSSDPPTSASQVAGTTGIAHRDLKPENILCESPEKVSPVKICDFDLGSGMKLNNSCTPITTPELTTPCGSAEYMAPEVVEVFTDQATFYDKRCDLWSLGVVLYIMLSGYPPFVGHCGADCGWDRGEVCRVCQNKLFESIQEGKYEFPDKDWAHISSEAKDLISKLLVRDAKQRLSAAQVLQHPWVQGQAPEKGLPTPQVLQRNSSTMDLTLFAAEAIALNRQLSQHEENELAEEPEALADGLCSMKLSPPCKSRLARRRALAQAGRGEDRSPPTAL
structure (smiles),measurement,setting,value
"Cc1c2c(c(=O)n3c1C(=O)NC31CCCCC1)Nc1cc(N)ncc1C2 [Compound 2, 8′-amino-12′-methyl-6′,11′-dihydro-2′H-spiro[cyclohexane-1,3′-imidazole[1′,5′:1,6]pyrido[3,4-B][1,6]naphthyridine]-1′,5′-dione hydrochloride]",IC50,MNK1,10 to 100 nM
same,AUC(0-inf),"[1]; iv, 3 mg/kg",471 ng·h/mL
same,AUC(0-t),"[1]; iv, 3 mg/kg",456 ng·h/mL
same,clearance,"[1]; iv, 3 mg/kg",110 mL/min/kg
same,half-life,"[1]; iv, 3 mg/kg",1.58 h
same,Vd,"[1]; iv, i.v., 3 mg/kg, read-out: Vz",12.3 L/kg
same,bioavailability,"[1]; oral, p.o. 10 mg/kg vs i.v. 3 mg/kg",38.8%
same,AUC(0-inf),"[1]; po, 10 mg/kg",624 ng·h/mL
same,AUC(0-t),"[1]; po, 10 mg/kg",584 ng·h/mL
same,Cmax,"[1]; po, 10 mg/kg",130 ng/mL
same,Tmax,"[1]; po, 10 mg/kg",2.17 h
same,half-life,"[1]; po, 10 mg/kg",5.07 h
same,IC50,MNK2 [2],< 10 nM
same,IC50,Phosphorylated eIF4E,< 50 nM
same,inhibition at 1 µM,MNK2 [3],99.5%
